Results reported in US20190315823A1, “SMALL CATIONIC ANTI-BIOFILM AND IDR PEPTIDES” (priority 2013, published 2019).
Ends that are not written are not given here.

Columns and labels:
[1] = tested on: methicillin resistant Staphylococcus aureus (MRSA) biofilm; conditions: approximate peptide concentration […] (around 3 μg/ml); compared to untreated samples
Outline: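 Peptide was present from inoculation onward, with bacteria seeded at 1/100 from overnight cultures into BM2 biofilm medium or Luria Broth. Crystal violet staining of surface-attached cells (A595) quantified biofilm reduction at 22–46 h. K. pneumoniae was additionally screened in a real-time Bioflux flow device for some peptides.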

[2] = tested on: human peripheral blood mononuclear cells (MCP-1); assay: SPOT-synthesized derivative screen: production of chemokine MCP-1; format: cell-based; conditions: Table 12, No LPS, human PBMC, peptide at ~18-24 μM; for MCP1: background subtracted 139 (HH2 derivatives), 170 (1018 derivatives), 242 (1002 and hybrid peptides) pg/ml
Outline: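 MCP-1 was quantified by capture ELISA in cleared culture supernatants of treated human peripheral blood mononuclear cells. Cells came from heparinized volunteer blood via Ficoll gradient and were seeded at 0.75 to 1×10^6 cells/ml (37 °C, 5% CO2).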

[3] = tested on: LPS-stimulated human peripheral blood mononuclear cells (IL1-β); format: cell-based; conditions: Table 12, cells stimulated with 10 ng/ml LPS; for IL1β Production: LPS alone 1313 (HH2 derivatives), 1927 (1018 derivatives), 2455 (1002 and hybrid peptides) pg/ml

Substance: 1002-K7: single substituted 1002 peptide (VQRWLIKWRIRK-NH2) [Peptide 1002-K7]
- % Biofilm inhibition [1]: 28%
- Fold increase in MCP1 cf. untreated cells [2]: 0.9
- MCP1 [2]: -36.2 pg/mL
- Fold change in IL1β relative to no peptide LPS stimulated cells [3]: 0.12
- IL1β Production [3]: 302 pg/mL

Substance: HH2-V5: single substituted HH2 peptide (VQLRVRVAVIRA-NH2)
- % Biofilm inhibition [1]: 50%
- Fold increase in MCP1 cf. untreated cells [2]: 9.3
- MCP1 [2]: 1409 pg/mL
- Fold change in IL1β relative to no peptide LPS stimulated cells [3]: 1.29
- IL1β Production [3]: 1696 pg/mL

Substance: 1002-L7: single substituted 1002 peptide (VQRWLILWRIRK-NH2) [Peptide 1002-L7]
- % Biofilm inhibition [1]: 57%
- Fold increase in MCP1 cf. untreated cells [2]: 1.8
- MCP1 [2]: 199.1 pg/mL
- Fold change in IL1β relative to no peptide LPS stimulated cells [3]: 0.05
- IL1β Production [3]: 127 pg/mL

Substance: HH2-Q12: single substituted HH2 peptide (VQLRIRVAVIRQ-NH2)
- % Biofilm inhibition [1]: 72%
- Fold increase in MCP1 cf. untreated cells [2]: 13
- MCP1 [2]: 2034 pg/mL
- Fold change in IL1β relative to no peptide LPS stimulated cells [3]: 0.73
- IL1β Production [3]: 965 pg/mL

Substance: 1002-L8: single substituted 1002 peptide (VQRWLIVLRIRK-NH2) [Peptide 1002-L8]
- % Biofilm inhibition [1]: 57%
- Fold increase in MCP1 cf. untreated cells [2]: 10.8
- MCP1 [2]: 2367.1 pg/mL
- Fold change in IL1β relative to no peptide LPS stimulated cells [3]: 0.06
- IL1β Production [3]: 135 pg/mL

Substance: HH2-L1: single substituted HH2 peptide (LQLRIRVAVIRA-NH2)
- % Biofilm inhibition [1]: 72%
- Fold increase in MCP1 cf. untreated cells [2]: 4.8
- MCP1 [2]: 654 pg/mL
- Fold change in IL1β relative to no peptide LPS stimulated cells [3]: 0.94
- IL1β Production [3]: 1234 pg/mL

Substance: 1018-Q11: single substituted 1018 peptide (VRLIVAVRIWQR-NH2) [Peptide 1018-Q11]
- % Biofilm inhibition [1]: 51%
- Fold increase in MCP1 cf. untreated cells [2]: 11
- MCP1 [2]: 1773 pg/mL
- Fold change in IL1β relative to no peptide LPS stimulated cells [3]: 1.24
- IL1β Production [3]: 1625 pg/mL

Substance: 1018-W8: single substituted 1018 peptide (VRLIVAVWIWRR-NH2) [Peptide 1018-W8]
- % Biofilm inhibition [1]: 43%
- Fold increase in MCP1 cf. untreated cells [2]: 0.8
- MCP1 [2]: -28 pg/mL
- Fold change in IL1β relative to no peptide LPS stimulated cells [3]: 0.34
- IL1β Production [3]: 448 pg/mL

Substance: HH2-A7: single substituted HH2 peptide (VQLRIRAAVIRA-NH2)
- % Biofilm inhibition [1]: 57%
- Fold increase in MCP1 cf. untreated cells [2]: 1.3
- MCP1 [2]: 59 pg/mL
- Fold change in IL1β relative to no peptide LPS stimulated cells [3]: 1.30
- IL1β Production [3]: 1713 pg/mL

Substance: HH2-W3: single substituted HH2 peptide (VQWRIRVAVIRA-NH2)
- % Biofilm inhibition [1]: 62%
- Fold increase in MCP1 cf. untreated cells [2]: 21
- MCP1 [2]: 3418 pg/mL
- Fold change in IL1β relative to no peptide LPS stimulated cells [3]: 0.67
- IL1β Production [3]: 874 pg/mL

Substance: 1018-R5: single substituted 1018 peptide (VRLIRAVRIWRR-NH2) [Peptide 1018-R5]
- % Biofilm inhibition [1]: 4%
- Fold increase in MCP1 cf. untreated cells [2]: 0.8
- MCP1 [2]: -41 pg/mL
- Fold change in IL1β relative to no peptide LPS stimulated cells [3]: 1.50
- IL1β Production [3]: 1973 pg/mL

Substance: 1002-R6: single substituted 1002 peptide (VQRWLRVWRIRK-NH2) [Peptide 1002-R6]
- % Biofilm inhibition [1]: 13%
- Fold increase in MCP1 cf. untreated cells [2]: 1.0
- MCP1 [2]: 1.8 pg/mL
- Fold change in IL1β relative to no peptide LPS stimulated cells [3]: 0.25
- IL1β Production [3]: 605 pg/mL

Substance: 1018-A4: single substituted 1018 peptide (VRLAVAVRIWRR-NH2) [Peptide 1018-A4]
- % Biofilm inhibition [1]: 38%
- Fold increase in MCP1 cf. untreated cells [2]: 0.5
- MCP1 [2]: -88 pg/mL
- Fold change in IL1β relative to no peptide LPS stimulated cells [3]: 0.40
- IL1β Production [3]: 521 pg/mL

Substance: 1002-Q12: single substituted 1002 peptide (VQRWLIVWRIRQ-NH2) [Peptide 1002-Q12]
- % Biofilm inhibition [1]: 65%
- Fold increase in MCP1 cf. untreated cells [2]: 6.1
- MCP1 [2]: 1225.7 pg/mL
- Fold change in IL1β relative to no peptide LPS stimulated cells [3]: 0.05
- IL1β Production [3]: 127 pg/mL

Substance: 1018-K2: single substituted 1018 peptide (VKLIVAVRIWRR-NH2) [Peptide 1018-K2]
- % Biofilm inhibition [1]: 68%
- Fold increase in MCP1 cf. untreated cells [2]: 1.5
- MCP1 [2]: 92 pg/mL
- Fold change in IL1β relative to no peptide LPS stimulated cells [3]: 0.10
- IL1β Production [3]: 127 pg/mL

Substance: 1002-R8: single substituted 1002 peptide (VQRWLIVRRIRK-NH2) [Peptide 1002-R8]
- % Biofilm inhibition [1]: 23%
- Fold increase in MCP1 cf. untreated cells [2]: 1.0
- MCP1 [2]: -11.7 pg/mL
- Fold change in IL1β relative to no peptide LPS stimulated cells [3]: 0.36
- IL1β Production [3]: 892 pg/mL

Substance: HH2-I9: single substituted HH2 peptide (VQLRIRVAIIRA-NH2)
- % Biofilm inhibition [1]: 73%
- Fold increase in MCP1 cf. untreated cells [2]: 50
- MCP1 [2]: 8276 pg/mL
- Fold change in IL1β relative to no peptide LPS stimulated cells [3]: 0.75
- IL1β Production [3]: 980 pg/mL

Substance: 1002-L11: single substituted 1002 peptide (VQRWLIVWRILK-NH2) [Peptide 1002-L11]
- % Biofilm inhibition [1]: 61%
- Fold increase in MCP1 cf. untreated cells [2]: 9.5
- MCP1 [2]: 2048.4 pg/mL
- Fold change in IL1β relative to no peptide LPS stimulated cells [3]: 0.05
- IL1β Production [3]: 127 pg/mL

Substance: 1018-V10: single substituted 1018 peptide (VRLIVAVRIVRR-NH2) [Peptide 1018-V10]
- % Biofilm inhibition [1]: 50%
- Fold increase in MCP1 cf. untreated cells [2]: 1.2
- MCP1 [2]: 29 pg/mL
- Fold change in IL1β relative to no peptide LPS stimulated cells [3]: 0.28
- IL1β Production [3]: 370 pg/mL

Substance: HH2-R10: single substituted HH2 peptide (VQLRIRVAVRRA-NH2)
- % Biofilm inhibition [1]: 73%
- Fold increase in MCP1 cf. untreated cells [2]: 5.1
- MCP1 [2]: 701 pg/mL
- Fold change in IL1β relative to no peptide LPS stimulated cells [3]: 1.53
- IL1β Production [3]: 2003 pg/mL

Substance: 1002-G10: single substituted 1002 peptide (VQRWLIVWRGRK-NH2) [Peptide 1002-G10]
- % Biofilm inhibition [1]: 35%
- Fold increase in MCP1 cf. untreated cells [2]: 1.4
- MCP1 [2]: 91.3 pg/mL
- Fold change in IL1β relative to no peptide LPS stimulated cells [3]: 0.09
- IL1β Production [3]: 222 pg/mL

Substance: 1002-W1: single substituted 1002 peptide (WQRWLIVWRIRK-NH2) [Peptide 1002-W1]
- % Biofilm inhibition [1]: 76%
- Fold increase in MCP1 cf. untreated cells [2]: 3.6
- MCP1 [2]: 622.0 pg/mL
- Fold change in IL1β relative to no peptide LPS stimulated cells [3]: 0.05
- IL1β Production [3]: 127 pg/mL

Substance: HH2-V3: single substituted HH2 peptide (VQVRIRVAVIRA-NH2)
- % Biofilm inhibition [1]: 57%
- Fold increase in MCP1 cf. untreated cells [2]: 211
- MCP1 [2]: 35750 pg/mL
- Fold change in IL1β relative to no peptide LPS stimulated cells [3]: 1.27
- IL1β Production [3]: 1665 pg/mL

Substance: 1018-G10: single substituted 1018 peptide (VRLIVAVRIGRR-NH2) [Peptide 1018-G10]
- % Biofilm inhibition [1]: 55%
- Fold increase in MCP1 cf. untreated cells [2]: 0.8
- MCP1 [2]: -41 pg/mL
- Fold change in IL1β relative to no peptide LPS stimulated cells [3]: 0.46
- IL1β Production [3]: 605 pg/mL

Substance: 1018-K7: single substituted 1018 peptide (VRLIVAKRIWRR-NH2) [Peptide 1018-K7]
- % Biofilm inhibition [1]: 23%
- Fold increase in MCP1 cf. untreated cells [2]: 1.5
- MCP1 [2]: 92 pg/mL
- Fold change in IL1β relative to no peptide LPS stimulated cells [3]: 0.93
- IL1β Production [3]: 1222 pg/mL

Substance: 1002-V8: single substituted 1002 peptide (VQRWLIVVRIRK-NH2) [Peptide 1002-V8]
- % Biofilm inhibition [1]: 56%
- Fold increase in MCP1 cf. untreated cells [2]: 7.1
- MCP1 [2]: 1468.2 pg/mL
- Fold change in IL1β relative to no peptide LPS stimulated cells [3]: 0.08
- IL1β Production [3]: 198 pg/mL

Substance: 1002-A8: single substituted 1002 peptide (VQRWLIVARIRK-NH2) [Peptide 1002-A8]
- % Biofilm inhibition [1]: 52%
- Fold increase in MCP1 cf. untreated cells [2]: 0.9
- MCP1 [2]: -36.2 pg/mL
- Fold change in IL1β relative to no peptide LPS stimulated cells [3]: 0.09
- IL1β Production [3]: 219 pg/mL

Substance: 1002-V4: single substituted 1002 peptide (VQRVLIVWRIRK-NH2) [Peptide 1002-V4]
- % Biofilm inhibition [1]: 69%
- Fold increase in MCP1 cf. untreated cells [2]: 10.5
- MCP1 [2]: 2300.2 pg/mL
- Fold change in IL1β relative to no peptide LPS stimulated cells [3]: 0.08
- IL1β Production [3]: 190 pg/mL

Substance: 1018-A9: single substituted 1018 peptide (VRLIVAVRAWRR-NH2) [Peptide 1018-A9]
- % Biofilm inhibition [1]: 49%
- Fold increase in MCP1 cf. untreated cells [2]: 0.5
- MCP1 [2]: -88 pg/mL
- Fold change in IL1β relative to no peptide LPS stimulated cells [3]: 0.90
- IL1β Production [3]: 1176 pg/mL

Substance: 1002-K2: single substituted 1002 peptide (VKRWLIVWRIRK-NH2) [Peptide 1002-K2]
- % Biofilm inhibition [1]: 69%
- Fold increase in MCP1 cf. untreated cells [2]: 2.6
- MCP1 [2]: 392.4 pg/mL
- Fold change in IL1β relative to no peptide LPS stimulated cells [3]: 0.05
- IL1β Production [3]: 127 pg/mL
